These results are taken from publication PMC8511083 (European journal of medicinal chemistry, 2021).

Each structure is given as a SMILES string.

The test system of data set [1] is panel of melanoma and breast cancer cell lines. Nature of the data set: Average growth inhibition in panel of melanoma and breast cancer cell lines. The data set is classed as cell-based. As to conditions: Homo sapiens, read-out: Average IC50, average of results obtained in all six cell lines.
The subject of another data set is OVCAR3 and OVCAR8 cells. The experiment in a line: Average growth inhibition in ovarian cancer cell lines. The data set is classed as cell-based. As to conditions: Homo sapiens, read-out: Average IC50.
Data set [2] addresses T1, survivin (Homo sapiens, UniProt O15392). Nature of the data set: Western blot of IAPs and cleaved-PARP in A375 cells. (In western blotting, separated proteins are transferred to a membrane and probed.)
Data set [3] addresses T1, survivin. The experiment in a line: Western blot of survivin in ovarian cancer cells. The settings on record: OVCAR8, SKOV3 and OVCAR3 cells, 24 hr, 2 and 4 μM.
In a further data set the test system is A375 xenograft tumors. Nature of the data set: A375 subcutaneous melanoma xenograft model in NSG mice. Type of data set: in vivo, mouse. As to conditions: 20 mg/kg IP, 3 times/week, 15 days, end of experiment, vs vehicle.
Data set [4] is described as follows: Liver microsome stability assay, human. The settings on record: human microsomes, 88 vs 51 min. (Microsomes from liver hold many membrane-bound enzymes, among them those of drug oxidation.)
Another data set concerns MDA-MB-435. Nature of the data set: In vitro antiproliferative. The data set is classed as cell-based. As to conditions: Homo sapiens, MDA-MB-435, 72 h, read-out: IC50 MDA-MB-435.
The test system of another data set is MDA-MB-435/LCC6MDR1. Nature of the data set: In vitro antiproliferative. The data set is classed as cell-based. As to conditions: Homo sapiens, 72 h, read-out: IC50 MDA-MB-435/LCC6MDRI.

T1 sequence (O15392 whole entry): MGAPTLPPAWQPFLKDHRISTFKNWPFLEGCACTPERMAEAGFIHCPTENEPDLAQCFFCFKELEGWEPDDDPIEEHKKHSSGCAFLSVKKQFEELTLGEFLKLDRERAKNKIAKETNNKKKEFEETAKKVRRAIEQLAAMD

With `Oc1c(CN2CCCC2)cc(Cn2cnc(-c3ccccc3)c2)c2cccnc12` [Compound 4a, 5-((4-phenyl-1H-imidazol-1-yl)methyl)-7-(pyrrolidin-1-ylmethyl)quinolin-8-ol], in data set [1], the IC50 came out at 4.2 µM.

Regarding `Oc1c(CN2CCCC2)cc(COC2Cc3ccccc3C2)c2cccnc12` [Compound 4c, 5-(((2,3-dihydro-1H-inden-2-yl)oxy)methyl)-7-(pyrrolidin-1-ylmethyl)quinolin-8-ol], the IC50 in data set [1] is 2.7 µM.

Regarding `Oc1c(CN2CCCC2)cc(COC2CCc3ccccc3C2)c2cccnc12` (stereo not shown) [Compound 4d, 7-(pyrrolidin-1-ylmethyl)-5-(((1,2,3,4-tetrahydronaphthalen-2-yl)oxy)methyl)quinolin-8-ol], in data set [1], the IC50 was 1.9 µM.

In the case of `Oc1c(CN2CCCC2)cc(Cn2ncc(-c3ccc(Br)cc3)n2)c2cccnc12` [Compound 7a, 5-((4-(4-bromophenyl)-2H-1,2,3-triazol-2-yl)methyl)-7-(pyrrolidin-1-ylmethyl)quinolin-8-ol], the IC50 in data set [1] came to 2 µM. The IC50 in the data set on OVCAR3 and OVCAR8 cells stood at 1.3 µM. Further, at survivin [2] (24 h), the “apoptosis induction (cleaved-PARP, western blot)” value is on record as “effectively induced apoptosis”. On survivin [2] (24 h, 1, 5 and 10 μM), the “levels of other IAPs (CIAP1, XIAP, Livin; western blot)” value was “minimally affected” and the “survivin protein levels (western blot)” value is on record as “selectively suppressed survivin levels”.

On to `Oc1c(CN2CCCC2)cc(Cn2ncc(-c3ccc(C(F)(F)F)cc3)n2)c2cccnc12` [Compound 7b, 7-(pyrrolidin-1-ylmethyl)-5-((4-(4-(trifluoromethyl)phenyl)-2H-1,2,3-triazol-2-yl)methyl)quinolin-8-ol], for which the IC50 in data set [1] is 2.4 µM.

As for `Cc1ccc(-c2cnn(Cc3cc(CN4CCCC4)c(O)c4ncccc34)n2)cc1` [Compound 7d, 7-(pyrrolidin-1-ylmethyl)-5-((4-(p-tolyl)-2H-1,2,3-triazol-2-yl)methyl)quinolin-8-ol], in data set [1], the IC50 came to 1.6 µM.

As for `CCc1ccc(-c2cnn(Cc3cc(CN4CCCC4)c(O)c4ncccc34)n2)cc1` [Compound 7e, 5-((4-(4-ethylphenyl)-2H-1,2,3-triazol-2-yl)methyl)-7-(pyrrolidin-1-ylmethyl)quinolin-8-ol], the IC50 in data set [1] worked out at 2 µM.

For the compound `O=[N+]([O-])c1ccc(-c2cnn(Cc3cc(CN4CCCC4)c(O)c4ncccc34)n2)cc1` [Compound 7f, 5-((4-(4-nitrophenyl)-2H-1,2,3-triazol-2-yl)methyl)-7-(pyrrolidin-1-ylmethyl)quinolin-8-ol], in data set [1], the IC50 is 2.4 µM.

Regarding `COc1ccc(-c2cnn(Cc3cc(CN4CCCC4)c(O)c4ncccc34)n2)cc1` [Compound 7g, 5-((4-(4-methoxyphenyl)-2H-1,2,3-triazol-2-yl)methyl)-7-(pyrrolidin-1-ylmethyl)quinolin-8-ol], the IC50 in data set [1] came out at 2 µM.

As to `N#Cc1ccc(-c2cnn(Cc3cc(CN4CCCC4)c(O)c4ncccc34)n2)cc1` [Compound 7h, 4-(2-((8-hydroxy-7-(pyrrolidin-1-ylmethyl)quinolin-5-yl)methyl)-2H-1,2,3-triazol-4-yl)benzonitrile], in data set [1], the IC50 was determined as 3.3 µM.

For `Oc1c(CN2CCCC2)cc(Cn2ncc(-c3ccccc3Br)n2)c2cccnc12` [Compound 7j, 5-((4-(2-bromophenyl)-2H-1,2,3-triazol-2-yl)methyl)-7-(pyrrolidin-1-ylmethyl)quinolin-8-ol], the IC50 in data set [1] stood at 1.7 µM.

As to `Oc1c(CN2CCCC2)cc(Cn2ncc(-c3cccc(Br)c3)n2)c2cccnc12` [Compound 7k, 5-((4-(3-bromophenyl)-2H-1,2,3-triazol-2-yl)methyl)-7-(pyrrolidin-1-ylmethyl)quinolin-8-ol], the IC50 is 1.7 µM in data set [1]; 1.1 µM with OVCAR3 and OVCAR8 cells. Moreover, the “survivin protein accumulation (western blot)” value at survivin [3] is given as “reduced the accumulation of survivin protein”.

Take `Oc1c(CN2CCCCC2)cc(Cn2ncc(-c3ccc(Br)cc3)n2)c2cccnc12` [Compound 12a, 5-((4-(4-bromophenyl)-2H-1,2,3-triazol-2-yl)methyl)-7-(piperidin-1-ylmethyl)quinolin-8-ol]: the IC50 amounted to 1.4 µM in data set [1]; 1.1 µM in the data set on OVCAR3 and OVCAR8 cells.

Consider `Oc1c(CN2CCCCC2)cc(Cn2ncc(-c3ccc(C(F)(F)F)cc3)n2)c2cccnc12` [Compound 12b, 7-(piperidin-1-ylmethyl)-5-((4-(4-(trifluoromethyl)phenyl)-2H-1,2,3-triazol-2-yl)methyl)quinolin-8-ol], for which, in the data set on A375 xenograft tumors, the “reduction of tumor weight” value was “approximately 32%”. Besides, the “improvement of metabolic stability over MX-106” value in data set [4] is on record as 1.7 fold.

Turning to `CCN(CC)Cc1cc(Cn2ncc(-c3ccc(C(F)(F)F)cc3)n2)c2cccnc2c1O` [Compound 12d, 7-((diethylamino)methyl)-5-((4-(4-(trifluoromethyl)phenyl)-2H-1,2,3-triazol-2-yl)methyl)quinolin-8-ol], the IC50 in data set [1] is 3.1 µM.

For the compound `Oc1c(CN2CCOCC2)cc(Cn2ncc(-c3ccc(Br)cc3)n2)c2cccnc12` [Compound 12e, 5-((4-(4-bromophenyl)-2H-1,2,3-triazol-2-yl)methyl)-7-(morpholinomethyl)quinolin-8-ol], the IC50 in data set [1] turned out to be 1.7 µM.

In the case of `Oc1c(CN2CCNCC2)cc(Cn2ncc(-c3ccc(Br)cc3)n2)c2cccnc12` [Compound 14, 5-((4-(4-bromophenyl)-2H-1,2,3-triazol-2-yl)methyl)-7-(piperazin-1-ylmethyl)quinolin-8-ol], the IC50 in data set [1] stood at 2.6 µM.

As for `CC(C)c1ccc(COCc2cc(-c3ccccc3)c(O)c3ncccc23)cc1` [Compound 19a, 5-(((4-isopropylbenzyl)oxy)methyl)-7-phenylquinolin-8-ol], the IC50 with OVCAR3 and OVCAR8 cells amounted to 2 µM. The “apoptosis induction (cleaved-PARP, western blot)” value at survivin [2] (24 h) is “effectively induced apoptosis”. Besides, the “survivin protein levels at 10 μM (western blot)” value on survivin [2] (24 h, 10 μM) was “did not show survivin downregulation”. Besides, the “survivin protein levels (western blot)” value on survivin [2] (24 h, 1, 5 and 10 μM) was “selectively downregulated survivin”.

As to `CC(C)c1ccc(COCc2cc(-c3cncc4ccccc34)c(O)c3ncccc23)cc1` [Compound 19b, 5-(((4-isopropylbenzyl)oxy)methyl)-7-(isoquinolin-4-yl)quinolin-8-ol], the IC50 in data set [1] worked out at 0.9 µM.

For the compound `CC(C)c1ccc(COCc2cc(-c3ccnc4ccccc34)c(O)c3ncccc23)cc1` [Compound 19c, 5’-(((4-isopropylbenzyl)oxy)methyl)-[4,7’-biquinolin]-8’-ol], the IC50 in data set [1] worked out at 1.4 µM.

As to `Cc1ccc(-c2cc(COCc3ccc(C(C)C)cc3)c3cccnc3c2O)cc1` [Compound 19d, 5-(((4-isopropylbenzyl)oxy)methyl)-7-(p-tolyl)quinolin-8-ol], the IC50 in data set [1] was 1.4 µM.

Regarding `Cc1cccc(-c2cc(COCc3ccc(C(C)C)cc3)c3cccnc3c2O)c1` [Compound 19e, 5-(((4-isopropylbenzyl)oxy)methyl)-7-(m-tolyl)quinolin-8-ol], the IC50 in data set [1] was 1.6 µM.

`COc1ccc(-c2cc(COCc3ccc(C(C)C)cc3)c3cccnc3c2O)cc1` [Compound 19f, 5-(((4-isopropylbenzyl)oxy)methyl)-7-(4-methoxyphenyl)quinolin-8-ol]: in data set [1], the IC50 came to 1.4 µM.

For `CC(C)c1ccc(COCc2cc(-c3ccc(C(F)(F)F)cc3)c(O)c3ncccc23)cc1` [Compound 19g, 5-(((4-isopropylbenzyl)oxy)methyl)-7-(4-(trifluoromethyl)phenyl)quinolin-8-ol], the IC50 in data set [1] is 2.6 µM.

Consider `COCC[n+]1c2c(n(Cc3cnccn3)c1C)C(=O)c1ccccc1C2=O` [YM-155], for which the IC50 in the data set with MDA-MB-435 is 0.0024 ± 0.0002 µM; with MDA-MB-435/LCC6MDR1 it was over 1 µM.
